Target: T1, full-length beta-Catenin (Uniprot ID P35222) (Homo sapiens, UniProt P35222)
T1 construct: 10 nM full-length beta-Catenin (Uniprot ID P35222)
T1 sequence (P35222 1-781): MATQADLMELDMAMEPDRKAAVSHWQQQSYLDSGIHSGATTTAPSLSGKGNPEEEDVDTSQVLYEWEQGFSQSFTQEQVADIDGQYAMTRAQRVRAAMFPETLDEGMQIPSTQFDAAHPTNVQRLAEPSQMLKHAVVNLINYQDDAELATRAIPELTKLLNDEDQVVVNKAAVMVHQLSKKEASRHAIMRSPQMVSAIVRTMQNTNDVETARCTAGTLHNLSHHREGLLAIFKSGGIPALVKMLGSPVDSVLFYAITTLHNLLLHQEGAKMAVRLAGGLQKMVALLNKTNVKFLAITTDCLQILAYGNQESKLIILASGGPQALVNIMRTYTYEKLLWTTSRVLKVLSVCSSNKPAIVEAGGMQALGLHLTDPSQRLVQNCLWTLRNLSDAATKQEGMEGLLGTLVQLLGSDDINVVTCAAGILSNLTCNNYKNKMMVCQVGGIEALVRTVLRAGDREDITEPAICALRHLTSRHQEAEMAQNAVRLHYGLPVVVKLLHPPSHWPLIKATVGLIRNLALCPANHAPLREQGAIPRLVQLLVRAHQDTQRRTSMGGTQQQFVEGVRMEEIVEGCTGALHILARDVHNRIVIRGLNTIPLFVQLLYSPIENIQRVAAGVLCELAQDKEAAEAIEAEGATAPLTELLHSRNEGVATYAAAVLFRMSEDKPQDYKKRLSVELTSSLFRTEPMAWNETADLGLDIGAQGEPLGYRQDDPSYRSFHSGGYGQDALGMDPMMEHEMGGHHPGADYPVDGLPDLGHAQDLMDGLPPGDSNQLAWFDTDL
Assay: Fluorescence polarization IC50 (beta-catenin / 5FAM-TCF4 10-53 competition)
Format: binding
Conditions: fluorescence polarization; read-out: beta-Catenin FP IC50

Compound	IC50 [nM]
CC(=O)N1CCC[C@]12CC=CCCCC1(CCCC=CCOC(=O)N(C)CC[C@@](C)(C(=O)N[C@@H](Cc3ccsc3)C(=O)N[C@@H](Cc3csc4ccccc34)C(=O)N[C@@H](CCC(N)=O)C(N)=O)NC(=O)[C@H](CC(C)C)NC(=O)[C@H](Cc3ccccc3)NC(=O)[C@H](C)NC(=O)[C@H](C)NC(=O)[C@H](CC(=O)O)NC(=O)[C@H](CC(=O)O)NC1=O)NC(=O)[C@H](CC(C)(C)C)NC(=O)[C@H](CC(=O)O)NC2=O (stereo partly drawn) [I-1830, Ac-PL3-Asp-Npg-B5-Asp-Asp-Ala-Ala-Phe-Leu-SdN-3Thi-BztA-Gln-NH2]	313
CC(=O)N1CCC[C@]12CC=CCCCC1(CCCC=CCCCOC(=O)N3CC[C@@](C(=O)N[C@@H](Cc4ccsc4)C(=O)N[C@@H](Cc4csc5ccccc45)C(=O)N[C@@H](CCC(N)=O)C(N)=O)(C3)NC(=O)[C@H](CC(C)C)NC(=O)[C@H](Cc3ccccc3)NC(=O)[C@H](C)NC(=O)[C@H](C)NC(=O)[C@H](CNc3ccc([N+](=O)[O-])c(C(=O)O)c3)NC(=O)[C@H](CC(=O)O)NC1=O)NC(=O)[C@H](CC(C)(C)C)NC(=O)[C@H](CC(=O)O)NC2=O (stereo partly drawn) [I-1844, Ac-PL3-Asp-Npg-B5-Asp-[3COOH4NO2Ph]Dap-Ala-Ala-Phe-Leu-PyrS2-3Thi-BztA-Gln-NH2]	227
CC(=O)N1CCC[C@]12CC=CCCCC1(CCCC=CCCCOC(=O)N3CC[C@@](C(=O)N[C@@H](Cc4ccsc4)C(=O)N[C@@H](Cc4csc5ccccc45)C(=O)N[C@@H](CCC(N)=O)C(N)=O)(C3)NC(=O)[C@H](CC(C)C)NC(=O)[C@H](Cn3cc(CN(C)C)nn3)NC(=O)[C@H](C)NC(=O)[C@H](C)NC(=O)[C@H](CN(CC(=O)O)CC(F)(F)F)NC(=O)[C@H](CC(=O)O)NC1=O)NC(=O)[C@H](CC(C)(C)C)NC(=O)[C@H](CC(=O)O)NC2=O (stereo partly drawn) [I-1855, Ac-PL3-Asp-Npg-B5-Asp-TfeGA-Ala-Ala-[CH2NMe2]TriAzDap-Leu-PyrS2-3Thi-BztA-Gln-NH2]	849
CC(=O)N1CCC[C@]12CC=CCCCC1(CCCC=CCCCOC(=O)N3CC[C@@](C(=O)N[C@@H](Cc4ccsc4)C(=O)N[C@@H](Cc4csc5ccccc45)C(=O)N[C@@H](CCC(N)=O)C(N)=O)(C3)NC(=O)[C@H](CC(C)C)NC(=O)[C@H](Cn3cc(CN4CCNCC4)nn3)NC(=O)[C@H](C)NC(=O)[C@H](C)NC(=O)[C@H](CN(CC(=O)O)CC(F)(F)F)NC(=O)[C@H](CC(=O)O)NC1=O)NC(=O)[C@H](CC(C)(C)C)NC(=O)[C@H](CC(=O)O)NC2=O (stereo partly drawn) [I-1857, Ac-PL3-Asp-Npg-B5-Asp-TfeGA-Ala-Ala-[CH2Ppz]TriAzDap-Leu-PyrS2-3Thi-BztA-Gln-NH2]	4030
CC(=O)N1CCC[C@]12CC=CCCCC1(CCCC=CCCCOC(=O)N3CC[C@@](C(=O)N[C@@H](Cc4ccsc4)C(=O)N[C@@H](Cc4csc5ccccc45)C(=O)N[C@@H](CCC(N)=O)C(N)=O)(C3)NC(=O)[C@H](CC(C)C)NC(=O)[C@H](Cn3cc(CN4CCOCC4)nn3)NC(=O)[C@H](C)NC(=O)[C@H](C)NC(=O)[C@H](CN(CC(=O)O)CC(F)(F)F)NC(=O)[C@H](CC(=O)O)NC1=O)NC(=O)[C@H](CC(C)(C)C)NC(=O)[C@H](CC(=O)O)NC2=O (stereo partly drawn) [I-1858, Ac-PL3-Asp-Npg-B5-Asp-TfeGA-Ala-Ala-[MorphCH2]TriAzDap-Leu-PyrS2-3Thi-BztA-Gln-NH2]	1110
CC(=O)N1CCC[C@]12CC=CCCCC1(CCCC=CCCCOC(=O)N3CC[C@@](C(=O)N[C@@H](Cc4ccsc4)C(=O)N[C@@H](Cc4csc5ccccc45)C(=O)N[C@@H](CCC(N)=O)C(N)=O)(C3)NC(=O)[C@H](CC(C)C)NC(=O)[C@H](Cn3cc(CN4CCOCC4)nn3)NC(=O)[C@H](C)NC(=O)[C@H](C)NC(=O)[C@H](CN(CC(=O)O)CC(F)(F)F)NC(=O)[C@H](CC(=O)O)NC1=O)NC(=O)[C@H](CC(C)(C)C)NC(=O)[C@H](CC(=O)O)NC2=O (stereo partly drawn) [I-1859, Ac-PL3-Asp-Npg-B5-Asp-TfeGA-Ala-Ala-[MorphCH2]TriAzDap-Leu-PyrS2-3Thi-BztA-Gln-NH2]	1110

Other lines, results leading:

IC50 [nM]	Compound
474	CC(=O)N1CCC[C@]12CC=CCCCC1(CCCC=CCOC(=O)N3CC(C(=O)N[C@@H](Cc4ccsc4)C(=O)N[C@@H](Cc4csc5ccccc45)C(=O)N[C@@H](CCC(N)=O)C(N)=O)(C3)NC(=O)[C@H](CC(N)=O)NC(=O)[C@H](Cc3ccccc3)NC(=O)[C@H](C)NC(=O)[C@H](C)NC(=O)[C@H](CC(=O)O)NC(=O)[C@H](CC(=O)O)NC1=O)NC(=O)[C@H](CC(C)(C)C)NC(=O)[C@H](CC(=O)O)NC2=O (stereo partly drawn) [I-1826, Ac-PL3-Asp-Npg-B5-Asp-Asp-Ala-Ala-Phe-Asn-Az-3Thi-BztA-Gln-NH2]
308	CC(=O)N1CCC[C@]12CC=CCCCC1(CCCC=CCOC(=O)N3CC(C(=O)N[C@@H](Cc4ccsc4)C(=O)N[C@@H](Cc4csc5ccccc45)C(=O)N[C@@H](CCC(N)=O)C(N)=O)(C3)NC(=O)[C@H](CC(N)=O)NC(=O)[C@H](Cc3ccccc3)NC(=O)[C@H](C)NC(=O)[C@H](C)NC(=O)[C@H](CC(=O)O)NC(=O)[C@H](CC(=O)O)NC1=O)NC(=O)[C@H](CC(C)(C)C)NC(=O)[C@H](CC(=O)O)NC2=O (stereo partly drawn) [I-1827, Ac-PL3-Asp-Npg-B5-Asp-Asp-Ala-Ala-Phe-Asn-Az-3Thi-BztA-Gln-NH2]
668	CC(=O)N1CCC[C@]12CC=CCCCC1(CCCC=CCOC(=O)N(C)CC[C@@](C)(C(=O)N[C@@H](Cc3ccsc3)C(=O)N[C@@H](Cc3csc4ccccc34)C(=O)N[C@@H](CCC(N)=O)C(N)=O)NC(=O)[C@H](CC(N)=O)NC(=O)[C@H](Cc3ccccc3)NC(=O)[C@H](C)NC(=O)[C@H](C)NC(=O)[C@H](CC(=O)O)NC(=O)[C@H](CC(=O)O)NC1=O)NC(=O)[C@H](CC(C)(C)C)NC(=O)[C@H](CC(=O)O)NC2=O (stereo partly drawn) [I-1829, Ac-PL3-Asp-Npg-B5-Asp-Asp-Ala-Ala-Phe-Asn-SdN-3Thi-BztA-Gln-NH2]
1630	CC(=O)N1CCC[C@]12CCCCCCC1(CCCCCCOC(=O)N3CC(C(=O)N[C@@H](Cc4ccsc4)C(=O)N[C@@H](Cc4csc5ccccc45)C(=O)N[C@@H](CCC(N)=O)C(N)=O)(C3)NC(=O)[C@H](CC(N)=O)NC(=O)[C@H](Cc3ccccc3)NC(=O)[C@H](C)NC(=O)[C@H](C)NC(=O)[C@H](CC(=O)O)NC(=O)[C@H](CC(=O)O)NC1=O)NC(=O)[C@H](CC(C)(C)C)NC(=O)[C@H](CC(=O)O)NC2=O (stereo partly drawn) [I-1831, Ac-PL3-Asp-Npg-B5-Asp-Asp-Ala-Ala-Phe-Asn-Az-3Thi-BztA-Gln-NH2]
1110	CC(=O)N1CCC[C@]12CCCCCCC1(CCCCCCOC(=O)N3CC(C(=O)N[C@@H](Cc4ccsc4)C(=O)N[C@@H](Cc4csc5ccccc45)C(=O)N[C@@H](CCC(N)=O)C(N)=O)(C3)NC(=O)[C@H](CC(C)C)NC(=O)[C@H](Cc3ccccc3)NC(=O)[C@H](C)NC(=O)[C@H](C)NC(=O)[C@H](CC(=O)O)NC(=O)[C@H](CC(=O)O)NC1=O)NC(=O)[C@H](CC(C)(C)C)NC(=O)[C@H](CC(=O)O)NC2=O (stereo partly drawn) [I-1832, Ac-PL3-Asp-Npg-B5-Asp-Asp-Ala-Ala-Phe-Leu-Az-3Thi-BztA-Gln-NH2]
24	CC(=O)N1CCC[C@]12CC=CCCCC1(CCCC=CCCCOC(=O)N3CC[C@@](C(=O)N[C@@H](Cc4ccsc4)C(=O)N[C@@H](Cc4csc5ccccc45)C(=O)N[C@@H](CCC(N)=O)C(N)=O)(C3)NC(=O)[C@H](CC(C)C)NC(=O)[C@H](Cc3ccccc3)NC(=O)[C@H](C)NC(=O)[C@H](C)NC(=O)[C@H](CCN(CC(=O)O)CC(=O)O)NC(=O)[C@H](CC(=O)O)NC1=O)NC(=O)[C@H](CC(C)(C)C)NC(=O)[C@H](CC(=O)O)NC2=O (stereo partly drawn) [I-1836, Ac-PL3-Asp-Npg-B5-Asp-[CH2CO2H]GAbu-Ala-Ala-Phe-Leu-PyrS2-3Thi-BztA-Gln-NH2]
81	CC(=O)N1CCC[C@]12CC=CCCCC1(CCCC=CCCCOC(=O)N3CC[C@@](C(=O)N[C@@H](Cc4ccsc4)C(=O)N[C@@H](Cc4csc5ccccc45)C(=O)N[C@@H](CCC(N)=O)C(N)=O)(C3)NC(=O)[C@H](CC(C)C)NC(=O)[C@H](Cc3ccccc3)NC(=O)[C@H](C)NC(=O)[C@H](C)NC(=O)[C@H](CCN(CCN3CCOCC3)CC(=O)O)NC(=O)[C@H](CC(=O)O)NC1=O)NC(=O)[C@H](CC(C)(C)C)NC(=O)[C@H](CC(=O)O)NC2=O (stereo partly drawn) [I-1842, Ac-PL3-Asp-Npg-B5-Asp-[MorphEt]GAbu-Ala-Ala-Phe-Leu-PyrS2-3Thi-BztA-Gln-NH2]
512	CC(=O)N1CCC[C@]12CC=CCCCC1(CCCC=CCCCOC(=O)N3CC[C@@](C(=O)N[C@@H](Cc4ccsc4)C(=O)N[C@@H](Cc4csc5ccccc45)C(=O)N[C@@H](CCC(N)=O)C(N)=O)(C3)NC(=O)[C@H](CC(C)C)NC(=O)[C@H](Cn3cc(CN4CCS(=O)(=O)CC4)nn3)NC(=O)[C@H](C)NC(=O)[C@H](C)NC(=O)[C@H](CN(CC(=O)O)CC(F)(F)F)NC(=O)[C@H](CC(=O)O)NC1=O)NC(=O)[C@H](CC(C)(C)C)NC(=O)[C@H](CC(=O)O)NC2=O (stereo partly drawn) [I-1860, Ac-PL3-Asp-Npg-B5-Asp-TfeGA-Ala-Ala-[SO2MorphCH2]TriAzDap-Leu-PyrS2-3Thi-BztA-Gln-NH2]

— patent US20240116985A1, “STAPLED PEPTIDES AND METHODS THEREOF” (priority 2020, published 2024)
